Laboratory results published in the supplement of paper PMC11061612.

How the values were obtained:
Assay in all cases: combination Emax (second highest fraction inhibited in the dose matrix, 72 h); higher = more inhibition; extreme values may be limits of the assay
[1] = system: SNU-449 (Hepatocellular Carcinoma)
Outline: (§1)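 After 24 hours at 37°C and 5% CO2 in 1536-well plates, cells in DMEM/F12 or RPMI plus 10% FBS received two-drug dose matrices for 72 hours. Viability came from CellTiter-Glo 2.0 luminescence and was scaled as inhibition, anchored at 0 by vehicle wells and at 1 by blank wells. Combination Emax is taken as the second-highest inhibition in the matrix, and Bliss excess as the observed combination effect less EA + EB − EA·EB, with EA and EB the single-agent effects.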

[2] = system: HH (T-Cell Non-Hodgkin's Lymphoma)
Outline: as §1

[3] = system: SAS (Oral Cavity Carcinoma)
Outline: as §1

[4] = system: SNU-16 (Gastric Carcinoma)
Outline: as §1

[5] = system: SW1710 (Bladder Carcinoma)
Outline: as §1

[6] = system: NCI-H524 (Small Cell Lung Carcinoma)
Outline: as §1

[7] = system: ESS-1 (Other Solid Carcinomas)
Outline: as §1

[8] = system: WSU-NHL (B-Cell Non-Hodgkin's Lymphoma)
Outline: as §1

[9] = system: CAL-72 (Osteosarcoma)
Outline: as §1

[10] = system: TGBC1TKB (Biliary Tract Carcinoma)
Outline: as §1

[11] = system: EW-11 (Ewing's Sarcoma)
Outline: as §1

[12] = system: LNZTA3WT4 (Low Grade Glioma)
Outline: as §1

[13] = system: BFTC-909 (Kidney Carcinoma)
Outline: as §1

SMILES | combination Emax [1] | combination Emax [2] | combination Emax [3] | combination Emax [4] | combination Emax [5] | combination Emax [6] | combination Emax [7] | combination Emax [8] | combination Emax [9] | combination Emax [10] | combination Emax [11] | combination Emax [12] | combination Emax [13]
C[C@@H](Nc1cc(F)cc(F)c1)c1cc(C(=O)N(C)C)cc2c(=O)cc(N3CCOCC3)oc12 [AZD8186] + C1CN(CCC1(C(=O)N[C@@H](CCO)C2=CC=C(C=C2)Cl)N)C3=NC=NC4=C3C=CN4 [AZD5363] (first compound max 10 µM, 7x7, partner max 10 µM) | 0.198 | 0.299 | 0.364 | 0.22 | 0.495 | 0.224 | 0.549 | 0.9 | 0.29 | 0.559 | 0.579 | 0.357 | 
Cc1c2c(nn1C)CSCc1cc(n(C)n1)CSc1cc(c3ccccc3c1)OCCCc1c(C(=O)O)n(C)c3c-2c(Cl)ccc13 [AZD5991] + CC(=O)O[C@H]1C(=O)[C@@]2(C)[C@H]([C@H](OC(=O)c3ccccc3)[C@]3(O)C[C@H](OC(=O)[C@H](O)[C@@H](NC(=O)c4ccccc4)c4ccccc4)C(C)=C1C3(C)C)[C@]1(OC(C)=O)CO[C@@H]1C[C@@H]2O [Paclitaxel] (first compound max 1 µM, 7x7, partner max 3 µM) | 0.325 | 0.87 | 0.66 | 1 | 0.836 | 0.929 | 1 | 0.998 | 0.736 | 0.412 | 0.895 | 0.899 | 
C[C@@H]1COCCN1c1cc(C2([S@](C)(=N)=O)CC2)nc(-c2ccnc3[nH]ccc23)n1 [AZD6738] + C1CC(C1)(C(=O)[O-])C(=O)[O-].N.N.[Pt+2] [Carboplatin] (first compound max 10 µM, 7x7, partner max 10 µM) | 0.227 | 0.22 | 0.759 |  | 0.429 | 0.687 | 0.98 | 0.849 | 0.718 | 0.302 | 0.584 | 0.806 | 
CS(=O)(=O)CCNCc1ccc(-c2ccc3ncnc(Nc4ccc(OCc5cccc(F)c5)c(Cl)c4)c3c2)o1 [Lapatinib] + Cn1cnc2c(F)c(Nc3ccc(Br)cc3Cl)c(C(=O)NOCCO)cc21 [Selumetinib] (first compound max 10 µM, 7x7, partner max 10 µM) | 0.514 | 0.211 | 0.677 | 0.557 | 0.317 | 0.305 | 0.705 | 0.788 | 0.446 | 0.288 | 0.195 | 0.369 | 
O=C(c1cc(Cc2n[nH]c(=O)c3ccccc23)ccc1F)N1CCN(C(=O)C2CC2)CC1 [Olaparib] + COc1nnc2ccc(N3CCC(c4ccc(OCCN5CCN(C)C(=O)[C@H]5C)cc4)CC3)nn12 [AZD5153] (first compound max 10 µM, 7x7, partner max 1 µM) | 0.208 | 0.382 | 0.742 | 0.769 | 0.379 | 0.542 | 0.695 | 0.929 | 0.475 | 0.24 | 0.712 | 0.357 | 
C=CCn1c(=O)c2cnc(Nc3ccc(N4CCN(C)CC4)cc3)nc2n1-c1cccc(C(C)(C)O)n1 [AZD1775] + Nc1ccn([C@@H]2O[C@H](CO)[C@@H](O)C2(F)F)c(=O)n1 [Gemcitabine] (first compound max 1 µM, partner max 0.3 µM) | 0.426 | 0.574 | 0.996 | 0.998 | 0.755 | 0.951 | 1 | 0.987 | 0.716 | 0.454 | 0.758 | 0.886 | 
O=C(c1cc(Cc2n[nH]c(=O)c3ccccc23)ccc1F)N1CCN(C(=O)C2CC2)CC1 [Olaparib] + CN(CC[C@H](CSC1=CC=CC=C1)NC2=C(C=C(C=C2)S(=O)(=O)NC(=O)C3=CC=C(C=C3)N4CCC(CC4)[C@H](C5=CC=CC=C5C6=CC=C(C=C6)Cl)O)S(=O)(=O)C(F)(F)F)CCO [AZD4320] (first compound max 10 µM, 7x7, partner max 1 µM) | 0.11 | 0.21 | 0.205 | 0.691 | 0.265 | 0.755 | 0.787 | 0.674 | 0.183 | 0.366 | 0.923 | 0.168 | 
CC1(C)CCC(CN2CCN(c3ccc(C(=O)NS(=O)(=O)c4ccc(NCC5CCOCC5)c([N+](=O)[O-])c4)c(Oc4cnc5[nH]ccc5c4)c3)CC2)=C(c2ccc(Cl)cc2)C1 [Venetoclax] + CS(=O)(=O)CCNCc1ccc(-c2ccc3ncnc(Nc4ccc(OCc5cccc(F)c5)c(Cl)c4)c3c2)o1 [Lapatinib] (first compound max 1 µM, 7x7, partner max 10 µM) | 0.445 | 0.129 | 0.392 | 0.399 | 0.18 | 0.108 | 0.669 | 0.798 | 0.646 | 0.134 | 0.263 | 0.208 | 
CS(=O)(=O)CCNCc1ccc(-c2ccc3ncnc(Nc4ccc(OCc5cccc(F)c5)c(Cl)c4)c3c2)o1 [Lapatinib] + NC1(c2ccc(-c3nc4ccn5c(=O)[nH]nc5c4cc3-c3ccccc3)cc2)CCC1 [MK-2206] (first compound max 10 µM, 7x7, partner max 10 µM) | 0.82 | 0.451 | 0.641 | 0.964 | 0.602 | 0.941 | 0.96 | 0.969 | 0.89 | 0.623 | 0.948 | 0.911 | 0.941
C[C@@H]1COCCN1c1cc(C2([S@](C)(=N)=O)CC2)nc(-c2ccnc3[nH]ccc23)n1 [AZD6738] + Nc1ccn([C@@H]2O[C@H](CO)[C@@H](O)C2(F)F)c(=O)n1 [Gemcitabine] (first compound max 10 µM, 7x7, partner max 0.3 µM) | 0.557 | 0.716 | 0.991 | 1 | 0.655 | 0.994 | 1 | 0.993 | 0.897 | 0.583 | 0.833 | 0.954 | 
Cc1nc(-c2cn3c(n2)-c2ccc(-c4cnn(C(C)(C)C(N)=O)c4)cc2OCC3)n(C(C)C)n1 [Taselisib] + O=C(Nc1ccc2[nH]nc(-c3ccncc3)c2c1)[C@@H]1CCN(CC(=O)N2CCN(c3ccc(-c4ncccn4)cc3)CC2)C1 [SCH772984] (first compound max 10 µM, 7x7, partner max 5 µM) | 0.445 | 0.393 | 0.945 | 0.82 | 0.422 | 0.411 | 0.923 | 0.97 | 0.438 | 0.663 | 0.746 | 0.66 | 
C=CCn1c(=O)c2cnc(Nc3ccc(N4CCN(C)CC4)cc3)nc2n1-c1cccc(C(C)(C)O)n1 [AZD1775] + CCc1c2c(nc3ccc(O)cc13)-c1cc3c(c(=O)n1C2)COC(=O)[C@]3(O)CC [SN-38] (first compound max 1 µM, partner max 0.3 µM) | 0.61 | 0.567 | 1 | 0.989 | 0.533 | 0.76 | 1 | 0.999 | 0.838 | 0.426 | 0.723 | 0.802 | 
O=C(c1cc(Cc2n[nH]c(=O)c3ccccc23)ccc1F)N1CCN(C(=O)C2CC2)CC1 [Olaparib] + CC1(C)CCC(CN2CCN(c3ccc(C(=O)NS(=O)(=O)c4ccc(NCC5CCOCC5)c([N+](=O)[O-])c4)c(Oc4cnc5[nH]ccc5c4)c3)CC2)=C(c2ccc(Cl)cc2)C1 [Venetoclax] (first compound max 10 µM, 7x7, partner max 1 µM) | 0.0891 | 0.165 | 0.176 | 0.607 | 0.114 | 0.206 | 0.467 | 0.575 | 0.191 | 0.108 | 0.698 | 0.0965 | 
Cc1c2c(nn1C)CSCc1cc(n(C)n1)CSc1cc(c3ccccc3c1)OCCCc1c(C(=O)O)n(C)c3c-2c(Cl)ccc13 [AZD5991] + Nc1ccn([C@@H]2O[C@H](CO)[C@@H](O)C2(F)F)c(=O)n1 [Gemcitabine] (first compound max 1 µM, 7x7, partner max 0.3 µM) | 0.316 | 0.879 | 0.924 | 1 | 0.397 | 0.788 | 0.961 | 0.967 | 0.613 | 0.255 | 0.868 | 0.633 | 
C[C@@H](Nc1cc(F)cc(F)c1)c1cc(C(=O)N(C)C)cc2c(=O)cc(N3CCOCC3)oc12 [AZD8186] + CC(=O)c1c(C)c2cnc(Nc3ccc(N4CCNCC4)cn3)nc2n(C2CCCC2)c1=O [Palbociclib] (first compound max 10 µM, 7x7, partner max 10 µM) | 0.391 | 0.413 | 0.609 | 0.639 | 0.585 | 0.571 | 0.552 | 0.967 | 0.398 | 0.534 | 0.428 | 0.478 | 
O=C(c1cc(Cc2n[nH]c(=O)c3ccccc23)ccc1F)N1CCN(C(=O)C2CC2)CC1 [Olaparib] + Cc1c2c(nn1C)CSCc1cc(n(C)n1)CSc1cc(c3ccccc3c1)OCCCc1c(C(=O)O)n(C)c3c-2c(Cl)ccc13 [AZD5991] (first compound max 10 µM, 7x7, partner max 1 µM) | 0.0781 | 0.809 | 0.122 | 0.994 | 0.119 | 0.426 | 0.403 | 0.797 | 0.191 | 0.157 | 0.831 | 0.123 | 
